Results: paper PMC6522510 (Nature Communications, 2019)
Like-named read-outs stand apart in the source and are kept apart here.

Assays:
Experiment in all cases: Secondary dose-response HTS, Cell Titer Glo; call rule not given here
Format in all cases: cell-based, human
MOLM-13 = tested on: MOLM-13
MV4-11 = tested on: MV4-11
CHRF288-11 = details: secondary high-throughput screen; CHRF288-11
CMK = details: CMK; for EC50: Homo sapiens, read-out: average effective concentration, CMK
ML2 = details: for average effective concentration, ML-2: secondary high-throughput screen
U937 = details: for EC50: Homo sapiens
[1] = secondary high-throughput screen, MOLM-13
[2] = secondary high-throughput screen, MV4-11
[3] = secondary high-throughput screen
[4] = secondary high-throughput screen, U937

**Q.** With `COc1cc(O)c2c(c1)/C=C/C[C@H](O)[C@H](O)C(=O)/C=C\C[C@H](C)OC2=O` [(5Z)-7-OXOZEAENOL] as the compound, how does the “average effective concentration, MOLM-13” value (MOLM-13; [1]) read?
**A.** Its value is “Inactive”.

**Q.** What about the “average effective concentration, MV4-11” value (MV4-11; [2]) of the same compound?
**A.** The value was “Inactive”.

**Q.** How did the “average effective concentration, MOLM-13” value (MOLM-13; [1]) turn out when `N#C/C(=C\c1ccc(-c2cc(Cl)ccc2Cl)o1)C(=O)Nc1cccc2ncccc12` [AGK 2] was run?
**A.** The value was “Inactive”.

**Q.** And the “average effective concentration, MV4-11” value (MV4-11; [2])?
**A.** The value was “Inactive”.

**Q.** What about the “average effective concentration, CHRF288-11” value (CHRF288-11) of the same compound?
**A.** The value was “Inactive”.

**Q.** What about the “average effective concentration, CMK” value (CMK; [3]) of the same compound?
**A.** Its value is “Inactive”.

**Q.** And the “average effective concentration, ML-2” value (ML2)?
**A.** The value was “Inactive”.

**Q.** For `C=CC(=O)Nc1cccc(Nc2nc(Nc3ccc(OCCOC)cc3)ncc2F)c1` [CC-292 (AVL-292)], which “average effective concentration, MOLM-13” value (MOLM-13; [1]) is on record?
**A.** Its value is “Inactive”.

**Q.** And the “average effective concentration, MV4-11” value (MV4-11; [2])?
**A.** Its value is “Inactive”.

**Q.** What about the “average effective concentration, CHRF288-11” value (CHRF288-11) of the same compound?
**A.** The value was “Inactive”.

**Q.** Which “average effective concentration, MOLM-13” value (MOLM-13; [1]) does the source give for `Br.Cc1cc2nc(NCCCO)n(CC(=O)c3cc(C(C)(C)C)c(O)c(C(C)(C)C)c3)c2cc1C` [CID-2858522] here?
**A.** The value was “Inactive”.

**Q.** What about the “average effective concentration, MV4-11” value (MV4-11; [2]) of the same compound?
**A.** The value was “Inactive”.

**Q.** What about the “average effective concentration, CHRF288-11” value (CHRF288-11) of the same compound?
**A.** Its value is “Inactive”.

**Q.** What about the “average effective concentration, CMK” value (CMK; [3]) of the same compound?
**A.** Its value is “Inactive”.

**Q.** `COc1cc2ncnc(-n3nc(-c4ccccn4)nc3N)c2cc1OC` [CP-466722] was tested. Which “average effective concentration, MOLM-13” value (MOLM-13; [1]) did it give?
**A.** The value was “Inactive”.

**Q.** And the “average effective concentration, MV4-11” value (MV4-11; [2])?
**A.** Its value is “Inactive”.

**Q.** And the “average effective concentration, CHRF288-11” value (CHRF288-11)?
**A.** The value was “Inactive”.

**Q.** What about the “average effective concentration, CMK” value (CMK; [3]) of the same compound?
**A.** The value was “Inactive”.

**Q.** And the “average effective concentration, ML-2” value (ML2)?
**A.** Its value is “Inactive”.

**Q.** And the “average effective concentration, U937” value (U937; [4])?
**A.** The value was “Inactive”.

**Q.** `Cc1cc(Cl)ccc1OCCCC(=O)NO` [DROXINOSTAT] was tested. Which “average effective concentration, MOLM-13” value (MOLM-13; [1]) did it give?
**A.** The value was “Inactive”.

**Q.** And the “average effective concentration, MV4-11” value (MV4-11; [2])?
**A.** The value was “Inactive”.

**Q.** What about the “average effective concentration, CMK” value (CMK; [3]) of the same compound?
**A.** The value was “Inactive”.

**Q.** What about the “average effective concentration, ML-2” value (ML2) of the same compound?
**A.** The value was “Inactive”.

**Q.** And the “average effective concentration, U937” value (U937; [4])?
**A.** The value was “Inactive”.

**Q.** Which results are given for `CN(C)C1CCN(C(=O)c2ccc(NC(=O)Nc3ccc(-c4nc(N5CCOCC5)nc(N5CCOCC5)n4)cc3)cc2)CC1` [Gedatolisib]?
**A.** EC50 (MOLM-13; Homo sapiens, secondary high-throughput screen, MOLM-13, read-out: average effective concentration, MOLM-13): 0.19 µM; EC50 (MV4-11; Homo sapiens, secondary high-throughput screen, MV4-11, read-out: average effective concentration, MV4-11): 0.047 µM; EC50 (CMK; [3]): 7.7 µM; EC50 (U937; U-937, secondary high-throughput screen, U937, read-out: average effective concentration, U937): 0.024 µM

**Q.** Which results are given for `O=C(c1ccc(Nc2nccc(-c3cc4ccccc4s3)n2)cc1)N1CCC(N2CCCC2)CC1` [IKK 16]?
**A.** average effective concentration, MOLM-13 (MOLM-13; [1]): Inactive; average effective concentration, MV4-11 (MV4-11; [2]): Inactive

**Q.** For `Cc1ccc(NCCCc2ccccc2)c(N)c1` [JSH-23], which “average effective concentration, MOLM-13” value (MOLM-13; [1]) is on record?
**A.** The value was “Inactive”.

**Q.** What about the “average effective concentration, MV4-11” value (MV4-11; [2]) of the same compound?
**A.** Its value is “Inactive”.

**Q.** What does the source list for `O=c1cc(N2CCOCC2)oc2c(-c3cccc4c3sc3ccccc34)cccc12` [NU 7441]?
**A.** average effective concentration, MOLM-13 (MOLM-13; [1]): Inactive; average effective concentration, MV4-11 (MV4-11; [2]): Inactive; average effective concentration, CHRF288-11 (CHRF288-11): Inactive; average effective concentration, CMK (CMK; [3]): Inactive; average effective concentration, U937 (U937; [4]): Inactive

**Q.** Which results are given for `CN(c1ncccc1CNc1nc(Nc2ccc3c(c2)CC(=O)N3)ncc1C(F)(F)F)S(C)(=O)=O` [PF-00562271]?
**A.** average effective concentration, MOLM-13 (MOLM-13; [1]): Inactive; average effective concentration, MV4-11 (MV4-11; [2]): Inactive; average effective concentration, CHRF288-11 (CHRF288-11): Inactive

**Q.** With `Nc1ccc2ncnc(NCCc3ccc(Oc4ccccc4)cc3)c2c1` [QNZ] as the compound, how does the “average effective concentration, MOLM-13” value (MOLM-13; [1]) read?
**A.** The value was “Inactive”.

**Q.** And the “average effective concentration, MV4-11” value (MV4-11; [2])?
**A.** Its value is “Inactive”.

**Q.** And the “average effective concentration, CHRF288-11” value (CHRF288-11)?
**A.** Its value is “Inactive”.

**Q.** And the “average effective concentration, CMK” value (CMK; [3])?
**A.** Its value is “Inactive”.

**Q.** And the “average effective concentration, ML-2” value (ML2)?
**A.** The value was “Inactive”.

**Q.** Which results are given for `O=C(CCCCCCNC(=O)c1cnc(N(c2ccccc2)c2ccccc2)nc1)NO` [ROCILINOSTAT]?
**A.** average effective concentration, MOLM-13 (MOLM-13; [1]): Inactive; average effective concentration, MV4-11 (MV4-11; [2]): Inactive

**Q.** `O=C(Nc1ncc([N+](=O)[O-])s1)c1ccc([N+](=O)[O-])c(Cl)c1` [SM-7368] was tested. Which “average effective concentration, MOLM-13” value (MOLM-13; [1]) did it give?
**A.** Its value is “Inactive”.

**Q.** And the “average effective concentration, MV4-11” value (MV4-11; [2])?
**A.** The value was “Inactive”.

**Q.** And the “average effective concentration, CHRF288-11” value (CHRF288-11)?
**A.** The value was “Inactive”.

**Q.** What about the “average effective concentration, CMK” value (CMK; [3]) of the same compound?
**A.** The value was “Inactive”.

**Q.** How did the “average effective concentration, MOLM-13” value (MOLM-13; [1]) turn out when `Nc1nc(NC2CC2)cc(-c2cccc(Cl)c2Cl)n1` [TH588] was run?
**A.** The value was “Inactive”.

**Q.** And the “average effective concentration, MV4-11” value (MV4-11; [2])?
**A.** Its value is “Inactive”.

**Q.** What about the “average effective concentration, CHRF288-11” value (CHRF288-11) of the same compound?
**A.** The value was “Inactive”.

**Q.** What does the source list for `Cc1cc(Nc2cc(N3CCN(C)CC3)nc(Sc3ccc(NC(=O)C4CC4)cc3)n2)[nH]n1` [TOZASERTIB]?
**A.** EC50 (MOLM-13; Homo sapiens, MOLM-13, read-out: average effective concentration, MOLM-13): 0.039 µM; EC50 (MV4-11; Homo sapiens, MV4-11, read-out: average effective concentration, MV4-11): 0.068 µM; EC50 (CMK): 1.4 µM; EC50 (ML2; Homo sapiens, ML-2, read-out: average effective concentration, ML-2): > 10 µM; EC50 (U937; U-937, read-out: average effective concentration, U937): > 10 µM

**Q.** Which EC50 (MOLM-13; secondary high-throughput screen, MOLM-13, read-out: average effective concentration, MOLM-13) does the source give for AZD4547 here?
**A.** Its EC50 is 4.1 µM.

**Q.** And the EC50 (MV4-11; secondary high-throughput screen, MV4-11, read-out: average effective concentration, MV4-11)?
**A.** The EC50 was 7.8 µM.
